Measured values from ChEMBL document CHEMBL5126656, “Callintegers A and B, Unusual Tricyclo[4.4.0.09,10]tetradecane Clerodane Diterpenoids from Callicarpa integerrima with Inhibitory Effects on NLRP3 Inflammasome Activation” (J Nat Prod, 2022).
Calls of active or inactive are those of the source. No cut-off for these calls is given here.

Assays:
[1] = target: NACHT, LRR and PYD domains-containing protein 3 (Mus musculus) (UniProt Q8R4B8); experiment: Inhibition of NLRP3 inflammasome activation in LPS/nigericin-treated mouse J774A.1 cells assessed as decrease in pyroptosis at 20 uM pretreated for 0.5 hrs followed by stimulation with nigericin for 1 hr by fluorescent microscopic analysis; format: cell-based; conditions: J774.A1, time 1.5 hrs
[2] = target: NACHT, LRR and PYD domains-containing protein 3 (Mus musculus) (UniProt Q8R4B8); experiment: Inhibition of NLRP3 inflammasome activation in LPS/nigericin-treated mouse J774A.1 cells assessed as decrease in caspase-1 level pretreated for 0.5 hrs followed by stimulation with nigericin for 1 hr by Western blot analysis; format: cell-based; conditions: J774.A1, time 1.5 hrs
[3] = target: NACHT, LRR and PYD domains-containing protein 3 (Mus musculus) (UniProt Q8R4B8); experiment: Inhibition of NLRP3 inflammasome activation in LPS/nigericin-treated mouse J774A.1 cells assessed as decrease in IL-1beta level pretreated for 0.5 hrs followed by stimulation with nigericin for 1 hr by Western blot analysis; format: cell-based; conditions: J774.A1, time 1.5 hrs
[4] = target: NACHT, LRR and PYD domains-containing protein 3 (Mus musculus, UniProt Q8R4B8); experiment: Inhibition of NLRP3 inflammasome activation in LPS/nigericin-treated mouse J774A.1 cells assessed as decrease in IL-1beta level pretreated for 0.5 hrs followed by stimulation with nigericin for 1 hr by ELISA; format: cell-based, J774.A1
Chain of NACHT, LRR and PYD domains-containing protein 3 (Q8R4B8 whole entry, the tested form may be a part): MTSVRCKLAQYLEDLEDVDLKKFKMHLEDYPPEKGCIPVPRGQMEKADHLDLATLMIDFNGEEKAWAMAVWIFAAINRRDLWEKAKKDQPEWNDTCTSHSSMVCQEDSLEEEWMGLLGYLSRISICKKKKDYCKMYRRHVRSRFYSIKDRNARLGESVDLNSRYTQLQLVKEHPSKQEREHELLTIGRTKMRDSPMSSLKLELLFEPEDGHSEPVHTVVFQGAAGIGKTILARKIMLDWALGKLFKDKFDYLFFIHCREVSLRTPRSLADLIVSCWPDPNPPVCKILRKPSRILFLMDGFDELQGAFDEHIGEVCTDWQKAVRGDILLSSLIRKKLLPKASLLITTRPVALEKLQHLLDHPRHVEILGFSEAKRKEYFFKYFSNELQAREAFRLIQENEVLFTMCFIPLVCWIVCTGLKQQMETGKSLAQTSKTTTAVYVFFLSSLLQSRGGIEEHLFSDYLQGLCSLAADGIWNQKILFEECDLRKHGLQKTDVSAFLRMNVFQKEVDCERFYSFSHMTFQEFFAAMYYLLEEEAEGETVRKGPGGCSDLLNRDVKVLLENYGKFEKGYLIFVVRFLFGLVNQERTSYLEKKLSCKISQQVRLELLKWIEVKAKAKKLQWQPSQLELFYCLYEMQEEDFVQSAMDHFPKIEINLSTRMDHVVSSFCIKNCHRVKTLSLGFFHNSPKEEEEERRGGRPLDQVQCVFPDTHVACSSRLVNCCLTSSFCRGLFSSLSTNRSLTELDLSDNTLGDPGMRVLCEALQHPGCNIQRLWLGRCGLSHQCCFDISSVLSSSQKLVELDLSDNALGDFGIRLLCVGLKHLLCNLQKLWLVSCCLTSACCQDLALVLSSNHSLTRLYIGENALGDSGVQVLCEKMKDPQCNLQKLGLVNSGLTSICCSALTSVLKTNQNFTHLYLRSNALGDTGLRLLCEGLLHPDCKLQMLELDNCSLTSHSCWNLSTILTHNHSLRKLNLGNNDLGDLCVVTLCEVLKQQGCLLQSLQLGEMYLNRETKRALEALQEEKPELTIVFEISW

Chain of NACHT, LRR and PYD domains-containing protein 3 (Mus musculus) (Q8R4B8 whole entry, the tested form may be a part): as above

Row | inhibition [1] | inhibition [2] | inhibition [3] | IC50 [4] [nM] | Structure (SMILES)
1 | Active | Active | Active | 5500 | C=C1[C@@H](OC(C)=O)CC[C@]23C=C(C=O)[C@@H](OC(C)=O)C[C@@]2(C)[C@H](C)CC[C@@]13C
2 |  |  |  | 23.1 | CC(C)(O)c1coc(S(=O)(=O)NC(=O)Nc2c3c(cc4c2CCC4)CCC3)c1
